# Assay results as given in ChEMBL document CHEMBL1139816, “Melanocortin subtype 4 receptor agonists: structure-activity relationships about the 4-alkyl piperidine core” (Bioorg Med Chem Lett, 2007).
# Legend:
# Melanocortin receptor 4 [1] = biological target: T1, Melanocortin receptor 4 (Homo sapiens, UniProt P32245); assay: […] at human MC4R assessed as stimulation of cAMP production; type: functional; set-up: concentration or dose not given beside the values
# Melanocortin receptor 4 [2] = biological target: T1, Melanocortin receptor 4; assay: Binding affinity to human MC4R
# Melanocortin receptor 3 = Melanocortin receptor 3 (Homo sapiens, UniProt P41968); assay: […] at human MC3R assessed as stimulation of cAMP production; type: functional; set-up: concentration or dose not given beside the values
# Sequence of Melanocortin receptor 3 (P41968 whole entry): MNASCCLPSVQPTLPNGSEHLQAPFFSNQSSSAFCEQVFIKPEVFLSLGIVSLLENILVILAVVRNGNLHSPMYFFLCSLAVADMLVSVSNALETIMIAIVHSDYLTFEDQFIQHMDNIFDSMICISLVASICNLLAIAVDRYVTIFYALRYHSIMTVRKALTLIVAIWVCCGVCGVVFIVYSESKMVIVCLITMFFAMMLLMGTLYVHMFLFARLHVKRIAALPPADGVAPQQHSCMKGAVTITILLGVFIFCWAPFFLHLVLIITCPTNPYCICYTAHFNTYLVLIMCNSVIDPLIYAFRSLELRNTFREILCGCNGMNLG
# Melanocortin receptor 5 = Melanocortin receptor 5 (Homo sapiens, UniProt P33032); assay: […] at human MC5R assessed as stimulation of cAMP production; type: functional; set-up: concentration or dose not given beside the values
# Sequence of Melanocortin receptor 5 (P33032 whole entry): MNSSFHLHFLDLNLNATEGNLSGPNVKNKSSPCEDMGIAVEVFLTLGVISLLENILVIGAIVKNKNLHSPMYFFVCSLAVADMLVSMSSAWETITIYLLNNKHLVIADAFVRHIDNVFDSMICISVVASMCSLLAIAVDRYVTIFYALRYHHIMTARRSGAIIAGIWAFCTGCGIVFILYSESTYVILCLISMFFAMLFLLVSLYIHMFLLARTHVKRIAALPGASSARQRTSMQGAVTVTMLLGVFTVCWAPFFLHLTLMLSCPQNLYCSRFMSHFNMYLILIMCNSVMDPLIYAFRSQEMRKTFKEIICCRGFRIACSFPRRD
# Homo sapiens [3] = species: Homo sapiens; assay: Ratio of EC50 for human MC5R to EC50 for human MC4R
# Homo sapiens [4] = species: Homo sapiens; assay: Ratio of EC50 for human MC3R to EC50 for human MC4R
# T1 sequence (P32245 whole entry): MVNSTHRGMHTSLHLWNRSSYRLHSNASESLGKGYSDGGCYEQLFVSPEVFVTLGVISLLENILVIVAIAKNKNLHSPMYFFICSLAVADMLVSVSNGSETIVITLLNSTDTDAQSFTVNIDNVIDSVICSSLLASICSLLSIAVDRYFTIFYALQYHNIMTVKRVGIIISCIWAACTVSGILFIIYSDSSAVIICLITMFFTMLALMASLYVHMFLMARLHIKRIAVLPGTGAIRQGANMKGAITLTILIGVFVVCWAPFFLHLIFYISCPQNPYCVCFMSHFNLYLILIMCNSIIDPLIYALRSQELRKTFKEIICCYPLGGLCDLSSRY
smiles,measurement,setting,value
CN1CCN[C@@H](C(=O)N[C@@H](Cc2ccc(F)cc2)C(=O)N2CCC(C(=O)NC(C)(C)C)(C3C=CCCC3)CC2)C1 (some centres undefined),Activity,Melanocortin receptor 4 [1],76%
same,EC50,Melanocortin receptor 4 [1],84.6 nM
same,IC50,Melanocortin receptor 4 [2],64 nM
CCC1(CC#N)CCN(C(=O)[C@H](Cc2ccc(Cl)cc2)NC(=O)[C@H]2Cc3ccccc3CN2)CC1,IC50,Melanocortin receptor 4 [2],759 nM
CCCCCCC1(Cc2nnnn2C)CCN(C(=O)[C@H](Cc2ccc(Cl)cc2)NC(=O)[C@H]2Cc3ccccc3CN2)CC1,Activity,Melanocortin receptor 4 [1],84%
same,EC50,Melanocortin receptor 4 [1],28.7 nM
same,Activity,Melanocortin receptor 3,34%
same,EC50,Melanocortin receptor 3,1000 nM
same,Activity,Melanocortin receptor 5,15%
same,EC50,Melanocortin receptor 5,684 nM
same,IC50,Melanocortin receptor 4 [2],4 nM
CCC(C)C1(Cc2nnnn2C)CCN(C(=O)[C@H](Cc2ccc(Cl)cc2)NC(=O)[C@H]2Cc3ccccc3CN2)CC1 (some centres undefined),Activity,Melanocortin receptor 4 [1],107%
same,EC50,Melanocortin receptor 4 [1],3.9 nM
same,Activity,Melanocortin receptor 3,33%
same,EC50,Melanocortin receptor 3,263 nM
same,Activity,Melanocortin receptor 5,39%
same,EC50,Melanocortin receptor 5,250 nM
same,IC50,Melanocortin receptor 4 [2],3.7 nM
N#CCC1(C2CC2)CCN(C(=O)[C@H](Cc2ccc(Cl)cc2)NC(=O)[C@H]2Cc3ccccc3CN2)CC1,IC50,Melanocortin receptor 4 [2],173 nM
N#CCC1(C2CCCCC2)CCN(C(=O)[C@H](Cc2ccc(Cl)cc2)NC(=O)[C@H]2Cc3ccccc3CN2)CC1,Activity,Melanocortin receptor 4 [1],51%
same,EC50,Melanocortin receptor 4 [1],189 nM
same,Selectivity ratio,Homo sapiens [3],3
same,Activity,Melanocortin receptor 5,42%
same,EC50,Melanocortin receptor 5,640 nM
same,IC50,Melanocortin receptor 4 [2],6.8 nM
CCC(C)(C)C1(C(=O)NC(C)(C)C)CCN(C(=O)[C@H](Cc2ccc(F)cc2)NC(=O)[C@H]2CN(C)CCN2)CC1,Activity,Melanocortin receptor 4 [1],55%
same,EC50,Melanocortin receptor 4 [1],151 nM
same,IC50,Melanocortin receptor 4 [2],66.2 nM
CN1CCN[C@@H](C(=O)N[C@@H](Cc2ccc(F)cc2)C(=O)N2CCC(C(=O)NC(C)(C)C)(C3C=CC(=O)CC3)CC2)C1 (some centres undefined),Activity,Melanocortin receptor 4 [1],59%
same,EC50,Melanocortin receptor 4 [1],1770 nM
same,IC50,Melanocortin receptor 4 [2],343 nM
CN1CCN[C@@H](C(=O)N[C@@H](Cc2ccc(F)cc2)C(=O)N2CCC(CC3CC3)(C(=O)NC(C)(C)C)CC2)C1,Activity,Melanocortin receptor 4 [1],54%
same,EC50,Melanocortin receptor 4 [1],2170 nM
same,IC50,Melanocortin receptor 4 [2],840 nM
N#CCC1(C2CCCC2)CCN(C(=O)[C@H](Cc2ccc(Cl)cc2)NC(=O)[C@H]2Cc3ccccc3CN2)CC1,Activity,Melanocortin receptor 4 [1],52%
same,EC50,Melanocortin receptor 4 [1],196 nM
same,Activity,Melanocortin receptor 5,40%
same,EC50,Melanocortin receptor 5,630 nM
same,IC50,Melanocortin receptor 4 [2],16.4 nM
Cn1nnnc1CC1(C2CCCCC2)CCN(C(=O)[C@H](Cc2ccc(Cl)cc2)NC(=O)[C@H]2Cc3ccccc3CN2)CC1,Activity,Melanocortin receptor 4 [1],96%
same,EC50,Melanocortin receptor 4 [1],3.2 nM
same,Selectivity ratio,Homo sapiens [4],36
same,Selectivity ratio,Homo sapiens [3],69
same,Activity,Melanocortin receptor 3,50%
same,EC50,Melanocortin receptor 3,115 nM
same,Activity,Melanocortin receptor 5,57%
same,EC50,Melanocortin receptor 5,222 nM
same,IC50,Melanocortin receptor 4 [2],0.85 nM
CC1CCC(C2(C(=O)NC(C)(C)C)CCN(C(=O)[C@H](Cc3ccc(F)cc3)NC(=O)[C@H]3CN(C)CCN3)CC2)CC1 (some centres undefined),Activity,Melanocortin receptor 4 [1],81%
same,EC50,Melanocortin receptor 4 [1],10 nM
same,Activity,Melanocortin receptor 3,37%
same,EC50,Melanocortin receptor 3,230 nM
same,Activity,Melanocortin receptor 5,27%
same,EC50,Melanocortin receptor 5,888 nM
same,IC50,Melanocortin receptor 4 [2],6.8 nM
Cn1nnnc1CC1(Cc2ccccc2)CCN(C(=O)[C@H](Cc2ccc(Cl)cc2)NC(=O)[C@H]2Cc3ccccc3CN2)CC1,Activity,Melanocortin receptor 4 [1],70%
same,EC50,Melanocortin receptor 4 [1],111 nM
same,Activity,Melanocortin receptor 3,17%
same,EC50,Melanocortin receptor 3,840 nM
same,Activity,Melanocortin receptor 5,20%
same,EC50,Melanocortin receptor 5,1760 nM
same,IC50,Melanocortin receptor 4 [2],52.3 nM
Cn1nnnc1CC1(c2ccc(Cl)cc2)CCN(C(=O)[C@H](Cc2ccc(Cl)cc2)NC(=O)[C@H]2Cc3ccccc3CN2)CC1,Activity,Melanocortin receptor 4 [1],100%
same,EC50,Melanocortin receptor 4 [1],4.9 nM
same,Activity,Melanocortin receptor 3,92%
same,EC50,Melanocortin receptor 3,434 nM
same,Activity,Melanocortin receptor 5,17%
same,EC50,Melanocortin receptor 5,527 nM
same,IC50,Melanocortin receptor 4 [2],113 nM
Cn1nnnc1CC1(C2CCOCC2)CCN(C(=O)[C@H](Cc2ccc(Cl)cc2)NC(=O)[C@H]2Cc3ccccc3CN2)CC1,Activity,Melanocortin receptor 4 [1],90%
same,EC50,Melanocortin receptor 4 [1],157 nM
same,Activity,Melanocortin receptor 3,18%
same,EC50,Melanocortin receptor 3,2950 nM
same,Activity,Melanocortin receptor 5,18%
same,EC50,Melanocortin receptor 5,2950 nM
same,IC50,Melanocortin receptor 4 [2],32 nM
CC(C)CC1(Cc2nnnn2C)CCN(C(=O)[C@H](Cc2ccc(Cl)cc2)NC(=O)[C@H]2Cc3ccccc3CN2)CC1,Activity,Melanocortin receptor 4 [1],98%
same,EC50,Melanocortin receptor 4 [1],12.5 nM
same,Activity,Melanocortin receptor 3,31%
same,EC50,Melanocortin receptor 3,680 nM
same,Activity,Melanocortin receptor 5,46%
same,EC50,Melanocortin receptor 5,662 nM
same,IC50,Melanocortin receptor 4 [2],6 nM
CN1CCN[C@@H](C(=O)N[C@@H](Cc2ccc(F)cc2)C(=O)N2CCC(C(=O)NC(C)(C)C)(C3CCCCC3)CC2)C1,Activity,Melanocortin receptor 4 [1],98%
same,EC50,Melanocortin receptor 4 [1],6.5 nM
same,Activity,Melanocortin receptor 5,31%
same,EC50,Melanocortin receptor 5,977 nM
same,IC50,Melanocortin receptor 4 [2],13.6 nM
CC(C)C1(CC#N)CCN(C(=O)[C@H](Cc2ccc(Cl)cc2)NC(=O)[C@H]2Cc3ccccc3CN2)CC1,Activity,Melanocortin receptor 4 [1],32%
same,EC50,Melanocortin receptor 4 [1],827 nM
same,Activity,Melanocortin receptor 5,20%
same,EC50,Melanocortin receptor 5,1100 nM
same,IC50,Melanocortin receptor 4 [2],63 nM
CC1(CC#N)CCN(C(=O)[C@H](Cc2ccc(Cl)cc2)NC(=O)[C@H]2Cc3ccccc3CN2)CC1,IC50,Melanocortin receptor 4 [2],1490 nM
CCCCC1(CC#N)CCN(C(=O)[C@H](Cc2ccc(Cl)cc2)NC(=O)[C@H]2Cc3ccccc3CN2)CC1,Activity,Melanocortin receptor 4 [1],40%
same,EC50,Melanocortin receptor 4 [1],281 nM
same,Activity,Melanocortin receptor 5,21%
same,EC50,Melanocortin receptor 5,480 nM
same,IC50,Melanocortin receptor 4 [2],22.2 nM
CN1CCN[C@@H](C(=O)N[C@@H](Cc2ccc(F)cc2)C(=O)N2CCC(C(=O)NC(C)(C)C)(C3(C)CCCCC3)CC2)C1,Activity,Melanocortin receptor 4 [1],79%
same,EC50,Melanocortin receptor 4 [1],57.8 nM
same,Activity,Melanocortin receptor 5,56%
same,EC50,Melanocortin receptor 5,1980 nM
same,IC50,Melanocortin receptor 4 [2],36.6 nM
CN1CCN[C@@H](C(=O)N[C@@H](Cc2ccc(F)cc2)C(=O)N2CCC(C(=O)NC(C)(C)C)(C3CCC(C)(C)CC3)CC2)C1,Activity,Melanocortin receptor 4 [1],87%
same,EC50,Melanocortin receptor 4 [1],546 nM
same,Activity,Melanocortin receptor 3,42%
same,EC50,Melanocortin receptor 3,241 nM
same,Activity,Melanocortin receptor 5,19%
same,EC50,Melanocortin receptor 5,1120 nM
same,IC50,Melanocortin receptor 4 [2],162 nM
Cn1nnnc1CC1(CC(C)(C)C)CCN(C(=O)[C@H](Cc2ccc(Cl)cc2)NC(=O)[C@H]2Cc3ccccc3CN2)CC1,Activity,Melanocortin receptor 4 [1],76%
same,EC50,Melanocortin receptor 4 [1],21 nM
same,Activity,Melanocortin receptor 5,27%
same,EC50,Melanocortin receptor 5,380 nM
same,IC50,Melanocortin receptor 4 [2],3.6 nM
CN1CCN[C@@H](C(=O)N[C@@H](Cc2ccc(F)cc2)C(=O)N2CCC(CC3CCC3)(C(=O)NC(C)(C)C)CC2)C1,Activity,Melanocortin receptor 4 [1],55%
same,EC50,Melanocortin receptor 4 [1],563 nM
same,IC50,Melanocortin receptor 4 [2],177 nM
